From patent publication US20240239854A1, “ANTIMICROBIAL PEPTIDES AND MODIFICATIONS THEREOF” (Donald Danforth Plant Science Center, priority 2022, published 2024)
Values after ≈ are worked out from the molar mass of the structure shown.

Legend:
Assay type in all cases: cell-based
Botrytis cinerea T4 = details: for MIC, in-vitro antifungal activity against B. cinerea: 48 hours
[1] = tested on: Fusarium graminearum PH-1; details: for MIC, in-vitro antifungal activity against F. graminearum: F. graminearum PH-1, 48 hours; for F. graminearum PH-1 MIC Day1: MIC Day 1, 96-well plate, resazurin cell viability
[2] = tested on: Zymoseptoria tritici IPO323

Molecule	B. cinerea T4 MIC Day1 (Botrytis cinerea T4) [µM]	MIC, in-vitro antifungal activity against B. cinerea (Botrytis cinerea T4) [µM]	MIC, in-vitro antifungal activity against F. graminearum [1] [µM]	F. graminearum PH-1 MIC Day1 [1] [µM]	MIC against Z. tritici on day 1 [2] [µM]	MIC against Z. tritici on day 7 [2] [µM]	MIC against Z. tritici on day 14 [2] [µM]	Z. tritici IPO323 MIC Day 1 [2] [µM]	Z. tritici IPO323 MIC Day 7 [2] [µM]	Z. tritici IPO323 MIC Day 14 [2] [µM]
C[C@@H]1[C@H](O)[C@@H](C)/C=C/C=C/C=C/C=C/C=C/C=C/C=C/[C@H](O[C@@H]2O[C@H](C)[C@@H](O)[C@H](N)[C@@H]2O)C[C@@H]2O[C@](O)(C[C@@H](O)C[C@@H](O)[C@H](O)CC[C@@H](O)C[C@@H](O)CC(=O)O[C@H]1C)C[C@H](O)[C@H]2C(=O)O [Amphotericin-B, reference compound]	3	3 (≈ 2.77 µg/mL)	6 (≈ 5.54 µg/mL)	6	0.84 (≈ 0.776 µg/mL)	5.44 (≈ 5.03 µg/mL)	8.92 (≈ 8.24 µg/mL)	0.84	5.44	8.92
PD81.1.1: Pinus sylvestris wild-type defensin SEQ ID NO: 534 with N-terminal alanine, expressed in Pichia pastoris (RMCKTPSGKFKGYCVSSTNCKNVCRTEGFPTGSCDFHVASRKCYCYKPC; N-terminal alanine added; listed as Pinus sylvestris)	1	1	–	1.5	–	–	–	0.5	0.75	3
PD82.1.1: Pinus sylvestris wild-type defensin SEQ ID NO: 538 with N-terminal alanine, expressed in Pichia pastoris (RTCLSKSHRFHGYCVRSSSCKEICQTERFLSGECRHTHLGNRRCFCEKPC; N-terminal alanine added; listed as Pinus sylvestris)	1.125	–	–	1.5	–	–	–	0.625	2	3.5
PD83.1.1: Eucalyptus grandis wild-type defensin SEQ ID NO: 542 with N-terminal alanine, expressed in Pichia pastoris (RMCESQSHKFHGLCMSDRTCVVVCKEEDFDDGKCRGFRHRCFCRKPC; N-terminal alanine added; listed as Eucalyptus grandis)	>12	–	–	>12	–	–	–	–	–	–
PD84.1.1: Striga asiatica wild-type defensin SEQ ID NO: 546 with N-terminal alanine, expressed in Pichia pastoris (KICEYKSERFWGVCLSDIKCADVCKDESFESGDCQGLRRRCMCYNHC; N-terminal alanine added; listed as Striga asiatica)	>12	–	–	>12	–	–	–	>12	>12	>12
PD85.1.1: Panax ginseng wild-type defensin SEQ ID NO: 551 with N-terminal alanine, expressed in Pichia pastoris (KLCEKASLTWSGKCGNTQNCDKQCQNWESAKHGACHKRPTWKCFCYSDC; N-terminal alanine added; Panax ginseng)	>12	–	–	>12	–	–	–	0.625	1.75	10
PD86.1.1: Erythranthe guttata wild-type defensin SEQ ID NO: 555 with N-terminal alanine, expressed in Pichia pastoris (SLCETPSRYFNGICFSRRNCGAICEKEGFSSGRCKAFKCVCGKDC; N-terminal alanine added; listed as Erythranthe guttata)	12	–	–	6	–	–	–	7	12	>12
PD87.1.1: Raphanus sativus wild-type defensin SEQ ID NO: 560 with N-terminal alanine, expressed in Pichia pastoris (KLCQRPSGTWSGVCGNNNACKNQCIRLEKARHGSCNYVFPAHKCICYFPC; N-terminal alanine; listed as Raphanus sativus)	0.375	–	0.75	0.75	–	–	–	0.375	1.5	2.5
PD88.1.1: Fraxinus excelsior wild-type defensin SEQ ID NO: 565 with N-terminal alanine, expressed in Pichia pastoris (KHCAKLSKGWHGFCAPHKCSRYCIHHEGAYDGACLKHHHSKHIGCYCYYRHC; N-terminal alanine; Fraxinus excelsior)	0.75	–	–	>12	–	–	–	1.5	3	4
PD89.1.2: Crambe maritima wild-type defensin SEQ ID NO: 569 with N-terminal alanine, expressed in Pichia pastoris (KLCRKPSGTWSGLCANSDSCRKQCINLEKAKDGSCKYKFPAHKCFCYY; N-terminal alanine; listed as Crambe maritima)	2.5	–	–	12	–	–	–	1.5	6	12
PD92.1.1: Trifolium pratense wild-type defensin SEQ ID NO: 583 with N-terminal alanine, expressed in Pichia pastoris (RKCESKRRWIYGNCLSDEKCASDCLVKGFLFGKCRGYDNRCYCKKPRC; N-terminal alanine; Trifolium pratense)	3	–	–	3	–	–	–	0.75	1.75	2.5
PD93.1.1: Fragaria vesca wild-type defensin SEQ ID NO: 588 with N-terminal alanine, expressed in Pichia pastoris (KICEVPSKTFKGLCVKDRNCVVRCHSEGYGNGKCSHVRRQCMCLKICD; N-terminal alanine; listed as Fragaria vesca)	6	–	–	>12	–	–	–	2	5	8
PD94.1.1: Solanum lycopersicum wild-type defensin SEQ ID NO: 593 with N-terminal alanine, expressed in Pichia pastoris (KLCQYHSETFHGVCVTGNNCNRHCQRENFEGGRCHGIRHYRCVCYRTC; N-terminal alanine; listed as Solanum lycopersicum)	>12	–	–	>12	–	–	–	>12	>12	>12
PD95.1.1: Mimulus guttatus wild-type defensin SEQ ID NO: 598 with N-terminal alanine, expressed in Pichia pastoris (RHCESPSHRFKGICVRKSNCAAICQTEGFSSGKCRGFRSRCVCIKHC; N-terminal alanine; listed as Mimulus guttatus)	0.75	–	0.75	0.75	–	–	–	–	–	–
PD96.1.1: Thlaspi arvense wild-type defensin SEQ ID NO: 603 with N-terminal alanine, expressed in Pichia pastoris (RMCESKSHEFKGFCTKWRICRDVCITEGFTDGGCHGVLRHCVCKKPCLLSN; N-terminal alanine; Thlaspi arvense)	6	–	0.75	0.75	–	–	–	2.5	10	>12
PD99.1.1: Theobroma cacao wild-type defensin SEQ ID NO: 616 with N-terminal alanine, expressed in Pichia pastoris (KLCQKRSKTWTGPCIKTKNCDHQCRKWEKAQHGACHWQWPGFACFCYVNC; N-terminal alanine; Theobroma cacao)	0.75	–	0.75	0.75	–	–	–	–	–	–
PD100.1.1: Prunus armeniaca wild-type defensin SEQ ID NO: 620 with N-terminal alanine, expressed in Pichia pastoris (QRGCKQASKSMTTCTAHPECDKKCKGEKAKMGLCRADGPKGKKCWCYMC; N-terminal alanine added; listed as Prunus armeniaca)	6	–	–	6	–	–	–	1	4	8
PD114.1.1: Lupinus albus wild-type defensin SEQ ID NO: 679 with N-terminal alanine, expressed in Pichia pastoris (RTCKSKSQRYKGSCYSDNNCAIICEGEGFTGGKCHGFFCKCWCKRPCL; N-terminal alanine added; listed as Lupinus albus)	>12	–	–	>12	–	–	–	–	–	–
PD120.1.1: Setaria italica wild-type defensin SEQ ID NO: 706 with N-terminal alanine, expressed in Pichia pastoris (DRCETHSRTYKGRCNNHNCWSICITEGNTGGFCKGTLLLKCMCTSEC; N-terminal alanine added; listed as Setaria italica)	>12	–	–	12	–	–	–	–	–	–
